According to publication PMC3549684 (Bioorganic & medicinal chemistry letters, 2012):

Legend:
[1] = system: ApoE-deficient mice; settings: cited from earlier work
[2] = system: serine hydrolases detected in mouse brain; type: biochemical; settings: FP-Rh, concentrations up to 10 µM
[3] = system: human patients with coronary heart disease; settings: cited from earlier work
[4] = system: other ~40 serine hydrolases detected in PC3 cells; assay: ABPP-SILAC of inhibitor-treated PC3 cells in situ, other serine hydrolases; type: cell-based, human; settings: 100 nM, 4 hours
[5] = system: other detected serine hydrolase activities in the PC3 cell proteome; assay: competitive ABPP with FP-Rh in PC3 cell proteome, selectivity; type: biochemical, human; settings: FP-Rh probe
[6] = system: diabetic and hypercholesterolemic swine; settings: cited from earlier work
[7] = biological target: T1, recombinant mouse Lp-PLA2 (Mus musculus, UniProt Q60963); settings: previously shown; cited from earlier work
T1 sequence (Q60963 22-440): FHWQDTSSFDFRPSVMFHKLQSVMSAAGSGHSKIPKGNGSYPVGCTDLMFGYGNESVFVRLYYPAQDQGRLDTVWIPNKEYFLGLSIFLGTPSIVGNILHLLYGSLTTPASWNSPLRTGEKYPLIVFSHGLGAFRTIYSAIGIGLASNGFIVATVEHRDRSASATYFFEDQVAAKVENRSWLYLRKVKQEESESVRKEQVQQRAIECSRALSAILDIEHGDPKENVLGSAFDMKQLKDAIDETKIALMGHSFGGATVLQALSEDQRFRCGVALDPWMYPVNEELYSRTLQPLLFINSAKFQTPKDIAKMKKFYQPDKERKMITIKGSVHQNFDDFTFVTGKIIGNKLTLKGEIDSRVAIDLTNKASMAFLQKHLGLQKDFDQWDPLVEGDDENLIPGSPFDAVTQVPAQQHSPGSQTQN

SMILES: CCN(CC)CCN(Cc1ccc(-c2ccc(C(F)(F)F)cc2)cc1)C(=O)Cn1c(SCc2ccc(F)cc2)nc(=O)c2c1CCC2 [darapladib]
- atherosclerotic plaque formation [1]: significantly decrease
- plasma Lp-PLA2 activity [1]: significantly decrease
- cross-reactivity with other serine hydrolases [2]: neither darapladib nor JMN4 cross-reacted
- atherosclerotic plaque formation [3]: significantly decrease
- plasma Lp-PLA2 activity [3]: significantly decrease
- effect on other ~40 serine hydrolases in situ [4]: not affecting any
- inhibition of other detected serine hydrolase activities [5]: not inhibited
- atherosclerotic plaque formation [6]: significantly decrease
- plasma Lp-PLA2 activity [6]: significantly decrease

SMILES: CCCCCCCCCCC[C@@H](C[C@@H]1OC(=O)[C@H]1CCCCCC)OC(=O)[C@H](CC(C)C)NC=O [THL, tetrahydrolipstatin]
- inhibition of mouse Lp-PLA2 [7]: inhibited
